# Target: T1, squalene synthetase (Rattus norvegicus, UniProt Q02769)
# T1 construct: Rat liver microsomal preparation; from tissue; host or cells: liver microsomes of male rats (100,000 x g pellet)
# T1 sequence (Q02769 1-416): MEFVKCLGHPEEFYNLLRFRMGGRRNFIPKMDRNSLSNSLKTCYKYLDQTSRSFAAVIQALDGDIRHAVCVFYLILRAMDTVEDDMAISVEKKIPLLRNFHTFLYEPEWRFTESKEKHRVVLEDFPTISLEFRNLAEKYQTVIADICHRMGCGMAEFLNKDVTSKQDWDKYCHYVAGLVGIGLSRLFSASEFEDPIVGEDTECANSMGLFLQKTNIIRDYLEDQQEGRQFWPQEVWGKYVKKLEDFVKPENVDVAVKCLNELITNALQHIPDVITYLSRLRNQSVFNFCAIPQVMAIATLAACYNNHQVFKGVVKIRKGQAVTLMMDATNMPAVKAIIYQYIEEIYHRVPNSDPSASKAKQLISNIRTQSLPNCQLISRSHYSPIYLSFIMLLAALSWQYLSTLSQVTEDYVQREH
# Test: Squalene synthetase inhibition assay in vitro (rat liver microsomal preparation, 3H-FPP)
# Assay type: biochemical
# Conditions: rat liver microsomal enzyme, 3H-FPP 10 μM final conc.; for SQUALENE SYNTHETASE INHIBITION % max: maximal inhibition; for IC50: 10 min incubation at 37° C.
# Protocol: Squalene synthease inhibition assay in vitro
# a) Rat liver microsomal preparation
# Male rats weighing 200 to 300 g were decapitated and the liver removed and placed in 10 ml icecold 0.25M sucrose, 2 mM EDTA and 50 mM Tris, HCl buffer pH 7.4. The liver was homogenized in 3×volume buffer relative to weight using a glass teflon Potter-Elvehjem homogenizer set to 1000 rpm.
# The homogenate was then centrifuged for 15 min. at 12,000×g at 4° C. The resultant supernatant was gently decanted into 10 ml ultracentrifuge vials and treated at 100,000×g for 60 min. at 4° C. The microsomal pellet was resuspended in a final volume of 1 ml icecold 0.1M phosphate buffer pH 7.4 per gram liver tissue by gentle homogenization in a glass Potter-Elvehjem at 800 rpm. Aliquots of 0.5 ml (approx. 20 mg/ml protein) was stored at -80° C. until further use in the squalene synthetase inhibition assay.
# To begin the assay, 20 μl of the compound of this invention or vehicle solution is added to each 16×150 screw-cap culture tube on ice. Then 580 μl of N2 flushed assay buffer is pipetted into each tube. 100 μl of cofactor is next added to each tube, followed by 1 00 μl of a dilution of microsomal enzyme (approximately 80 μg protein). The tubes are preincubated for 10 min. at 37° C., and 200 μl of the ^3 H-FPP (200,000 dpm, 10 μM final conc.) is added to each tube at two second intervals. The tubes are then incubated for exactly 10 min., shaking at 150 oscillations per min. After the 10 min. incubation, the reaction is stopped by the addition of 1 ml of 15% KOH in ethanol, and the tubes are incubated for 30 min. in a 65° C. water bath for saponification of lipids and solubilization of proteins. The tubes are cooled on ice for five min. The samples are next extracted with 5 ml of petroleum ether by shaking for 10 min. at low speed on a metabolic shaker. Each lower aqueous layer is frozen in a dry ice/alcohol bath (2-propanol/methanol, 1:1), and each organic layer is poured into another set of 16 ×150 screw-top culture tubes containing 2 ml of deionized water. Each ether layer is washed by vortexing each tube for 5 sec. The aqueous layers are again frozen in the dry ice/alcohol bath, and the ether is poured into scintillation vials. 10 ml of AquaSol® is next added to each vial, and the vials are counted for 5 min. in a scintillation counter. Percent inhibitions are calculated from the counts obtained.
SMILES,SQUALENE SYNTHETASE INHIBITION % max [%],IC50 [nM]
c1ccc(CCCSc2nsnc2[C@H]2CN3CC[C@@H]2C3)cc1 (relative stereo),55,12400
c1ccc(Oc2ccc(COc3nsnc3C3CN4CCC3CC4)cc2)cc1 (centres unmarked),83,300
"c1ccc(CCCSc2nsnc2[C@H]2CN3CCC[C@@H]2C3)cc1 (single isomer, unassigned)",72,5100
c1ccc(-c2ccc(COc3nsnc3C3CN4CCC3CC4)cc2)cc1 (centres unmarked),60,3900
c1ccc(CCCSc2nsnc2C2CN3CCC2CC3)cc1 (centres unmarked),89,900
CCCCCCCSc1nsnc1C1CN2CCC1CC2 (centres unmarked),92,890
"c1ccc(CCCSc2nsnc2[C@@H]2CN3CCC[C@@H]2C3)cc1 (single isomer, unassigned)",80,1100

# Source: patent publication US5750538A, “Method of treating hypercholesterolemia and related disorders” (Novo Nordisk A/S, priority 1996, dated 1998)
